Entries after “also recorded” stand apart in the source; their conditions may differ.
Assays:
[1] = DPPH radical scavenging assay (in vitro); details: 0.1 mM DPPH in MeOH, 30 min dark, room temperature, 540 nm
[2] = molecular target: T1, BACE-1 (Homo sapiens, UniProt P56817); experiment: BACE-1 FRET inhibition assay; format: biochemical; details: FRET kit, 60 min room temperature, triplicate, tested up to 50 µM
T1 construct: purchased PanVera (Madison, WI, USA) / Thermo Fisher Scientific P2985
Description: The experiments were each performed in triplicates for all of the compounds.
A BACE-1 inhibition assay was conducted using a β-Secretase FRET kit (BACE-1, Thermo Fisher Sientific, San Diego, CA, USA) according to manufacturer instructions. […] The sample was diluted further in assay buffer (final concentrations of 50, 25, 12.5, 6.25, 3.12, 1.56, 0.78, 0.39, 0.2, and 0.1 µM in each well) and black 96-well microplates were mixed with 10 µL of BACE-1 substrate. Then, 10 µL of 3 × BACE-1 enzyme was added to each well to start the reaction. Plates were incubated at room temperature in the dark for 60 min. After incubation, 10 µL of 2.5 mM sodium acetate was added to each well to stop the reaction. Finally, multiwell spectrofluorometer instruments were used for a multimode plate reader (Multistkan^TM GO, Thermo Scientific, Waltham, MA, USA) at an excitation wavelength of 545 nm and an emission wavelength of 585 nm. The half-maximal inhibitory concentration (IC50) was calculated by plotting the obtained relative fluorescence unit per hour (RFU/h) against the logarithmic of the inhibitor concentration. All determinations were performed in triplicate.

[3] = test system: RAW 264.7 cells; experiment: Nitric oxide production (Griess reagent) in LPS-stimulated cells; format: cell-based, murine; details: RAW 264.7, 1 h pretreatment, LPS 0.5 μg/mL 24 h
Description: (§1) The macrophage-like murine cell line RAW 264.7 (KCLB number 40071; Korean Cell Line Bank, Seoul, Korea) was cultured in Dulbecco’s Modified Eagle Medium (DMEM, Sigma-Aldrich, St. Louis, MO, USA) supplemented with 10% heat-inactivated fetal bovine serum (FBS, Invitrogen, Burlington, ON, Canada) and 1% (w/v) antibiotic–antimycotic solution (Invitrogen, Grand Island, NY, USA) at 5% CO2 and 37 °C.
Nitrite accumulation was used as an indicator of NO production in the medium, and the nitrite level was determined by assaying the culture supernatants for nitrite using the Griess reagent (1% sulfanilamide, 0.1% N-(1-naphathyl)-ethylenediamine dihydrochloride, and 5% phosphoric acid). […] Then, 100 μL of cell culture supernatants were mixed with 100 μL of Griess reagent in a 96-well plate. Sodium nitrite was used to generate a standard curve and the concentration of nitrite was then measured by the absorbance at 540 nm using a microplate reader. All determinations were performed in triplicate.

[4] = test system: RAW 264.7 cells; experiment: MTT cytotoxicity assay; format: cell-based, murine; details: RAW 264.7, 24 h
Description: as §1
Cell cytotoxicity was determined by an MTT (3-(4,5)-dimethylthiazol-2-yl-2,5-diphenyltetrazolium bromide, Amresco, Solon, OH, USA) colorimetric assay. […] After incubation with test substances, MTT solutions (5 μL of a 5 mg/mL concentration in PBS) were added to the wells and incubated for 4 h at 37 °C. Then, treated with 100 μL of fresh DMSO to dissolve the crystals for 10 min, the cells were detected under a microplate reader (Thermo Scientific Inc., San Diego, CA, USA) to measure the absorbance at 570 nm. Relative cell viability was calculated by comparing the absorbance of the untreated control group. All experiments were performed in triplicate.

[5] = Stability in aqueous solution by HPLC purity; format: physicochemical; details: 10 mM in water, room temperature, HPLC UV 254 nm; ramalin started at 98%
Description: Therefore, to improve its stability and BBB penetration capacity, its structure was modified by replacing the phenolic hydroxyl groups at position two with either a methyl group or a fluorine atom and by changing their positions. Thus, several derivatives were obtained. Specifically, RA-2Me, RA-3Me, and RA-4Me were synthesized by changing the position of the methyl group, which is an electron-donating group, and RA-25Me and RA-34Me, with two methyl groups on the phenyl ring, were synthesized by introducing an extra methyl group. To investigate the effect of fluorine atoms, which are electron-withdrawing as opposed to the methyl group, RA-2F, RA-4F, RA-24F, and RA-pentafluoride (PF) were also successfully synthesized. […] AD-related therapeutic agents are required to penetrate the BBB and reach their target. […] Given that ramalin and its derivatives are water-soluble low-molecular-weight compounds and that their lipophilicities and hydrophilicities balance out, their influence on AlogP, which indicates lipophilicity, was not significant. Additionally, given their PSA values (90 Å^2 < PSA < 140 Å^2), they are considered to be advantageous in terms of BBB penetration.

T1 sequence (P56817 46-501): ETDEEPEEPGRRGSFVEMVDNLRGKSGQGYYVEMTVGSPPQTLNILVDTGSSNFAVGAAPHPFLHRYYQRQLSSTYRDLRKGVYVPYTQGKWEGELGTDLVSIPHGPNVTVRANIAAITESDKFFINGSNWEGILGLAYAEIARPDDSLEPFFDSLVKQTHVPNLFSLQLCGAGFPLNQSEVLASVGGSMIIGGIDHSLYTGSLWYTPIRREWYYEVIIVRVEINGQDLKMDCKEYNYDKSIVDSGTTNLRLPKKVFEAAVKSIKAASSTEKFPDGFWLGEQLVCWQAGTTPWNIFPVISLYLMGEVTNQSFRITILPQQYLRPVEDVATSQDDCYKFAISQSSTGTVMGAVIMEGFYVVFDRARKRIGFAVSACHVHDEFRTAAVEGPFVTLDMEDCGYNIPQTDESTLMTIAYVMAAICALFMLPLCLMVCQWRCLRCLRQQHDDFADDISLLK

SMILES | IC50 [1] [µM] | IC50 [2] [µM] | NO inhibitory (anti-inflammatory) activity [3] | Cytotoxicity (cell viability, MTT) [4] | Purity after 14 h in water [5] [%]
N[C@@H](CCC(=O)NNc1ccccc1F)C(=O)O [RA-2F, N^5-((2-Fluorophenyl)amino)-L-glutamine] | 4.42 | 18.8 ± 3.86 | concentration-dependent NO inhibition |  | 
Cc1ccccc1NNC(=O)CC[C@H](N)C(=O)O [RA-2Me, N^5-(o-Tolylamino)-L-glutamine] | 2.79 | 15 ± 4.92 | weak anti-inflammatory effects |  | 
Cc1cccc(NNC(=O)CC[C@H](N)C(=O)O)c1 [RA-3Me, N^5-(m-Tolylamino)-L-glutamine] | 5.3 | 22.5 ± 0.69 | weak anti-inflammatory effects |  | 
N[C@@H](CCC(=O)NNc1ccc(F)cc1)C(=O)O [RA-4F, N^5-((4-Fluorophenyl)amino)-L-glutamine] | 4.16 | 20.1 ± 4.78 | concentration-dependent NO inhibition |  | 
Cc1ccc(NNC(=O)CC[C@H](N)C(=O)O)cc1 [RA-4Me, N^5-(p-Tolylamino)-L-glutamine] | 3.91 | 13 ± 1.62 | weak anti-inflammatory effects |  | 
N[C@@H](CCC(=O)NNc1ccc(F)cc1F)C(=O)O [RA-24F, N^5-((2,4-Difluorophenyl)amino)-L-glutamine] | 5.32 |  | concentration-dependent NO inhibition; also recorded: stronger anti-inflammatory effect than ramalin | without cytotoxicity | 
Cc1ccc(C)c(NNC(=O)CC[C@H](N)C(=O)O)c1 [RA-25Me, N^5-((2,5-Dimethylphenyl)amino)-L-glutamine] | 4.5 | 9.81 ± 1.21 | concentration-dependent NO inhibition |  | 
Cc1ccc(NNC(=O)CC[C@H](N)C(=O)O)cc1C [RA-34Me, N^5-((3,4-Dimethylphenyl)amino)-L-glutamine] | 4.46 | 13.1 ± 1.52 | concentration-dependent NO inhibition |  | 
N[C@@H](CCC(=O)NNc1c(F)c(F)c(F)c(F)c1F)C(=O)O [RA-PF, N^5-((Perfluorophenyl)amino)-L-glutamine] |  | 14.6 ± 6.08 | concentration-dependent NO inhibition |  | 
NC(CCC(=O)NNc1ccccc1O)C(=O)O (stereo not drawn) [Ramalin, ramalin] |  |  |  |  | 83
